Data on 29 molecules can be found in ChEMBL document CHEMBL1938379, “Capture hydrolysis signals in the microsomal stability assay: molecular mechanisms of the alkyl ester drug and prodrug metabolism” (Bioorg Med Chem Lett, 2012).

SMILES strings stand for the structures.

The first series in a line: Clearance in human liver microsomes at 1 uM measured after 60 mins by HPLC analysis. The following applies: liver microsomes. (In general: Microsomes from liver hold many membrane-bound enzymes, among them those of drug oxidation.)
As for `COC(=O)C1=C(C)NC(C)=C(C(=O)OC(C)(C)CN(C)CCC(c2ccccc2)c2ccccc2)C1c1cccc([N+](=O)[O-])c1` (centres undefined) [LERCANIDIPINE], the microsomal CLint (in general, the capacity of the preparation to metabolise the compound, expressed as a volume cleared per time) at 1 h, 1 µM stood at 125 µL/min/mg.

For `CCOC(=O)c1ncn2c1CN(C)C(=O)c1cc(F)ccc1-2` [FLUMAZENIL], the microsomal CLint at 1 h, 1 µM came out at 10.6 µL/min/mg.

In turn, `C#C[C@H](CC(=O)OCC)NC(=O)CCC(=O)Nc1ccc(C(=N)N)cc1` [XEMILOFIBAN] had a microsomal CLint at 1 h, 1 µM of under 8 µL/min/mg.

Turning to `CCOC(=O)C1=C(C)NC(C)=C(C(=O)OC)C1c1cccc([N+](=O)[O-])c1` (centres undefined) [NITRENDIPINE], the microsomal CLint at 1 h, 1 µM amounted to 166 µL/min/mg.

In the case of `CCOC(=O)[C@H](CCc1ccccc1)N[C@H]1CCc2ccccc2N(CC(=O)O)C1=O` [BENAZEPRIL], the microsomal CLint at 1 h, 1 µM was 52.5 µL/min/mg.

`CCOC(=O)COc1ccc2c(=O)cc(-c3ccccc3)oc2c1` [EFLOXATE] displayed a microsomal CLint at 1 h, 1 µM of over 300 µL/min/mg.

For the molecule `CCOC(=O)[C@H](CCc1ccccc1)N[C@@H](C)C(=O)N1Cc2ccccc2C[C@H]1C(=O)O`, the microsomal CLint at 1 h, 1 µM was determined as 8.5 µL/min/mg.

`CCC[C@H](N[C@@H](C)C(=O)N1[C@H](C(=O)O)C[C@@H]2CCCC[C@@H]21)C(=O)OCC` [PERINDOPRIL] yielded a microsomal CLint at 1 h, 1 µM of 10.7 µL/min/mg.

On to `CCOC(=O)/C=C1\SC(N2CCCCC2)C(=O)N1C` (centres undefined) [ETOZOLIN], for which the microsomal CLint at 1 h, 1 µM was determined as 20.5 µL/min/mg.

In turn, `COCCOC(=O)C1=C(C)NC(C)=C(C(=O)OC(C)C)C1c1cccc([N+](=O)[O-])c1` (centres undefined) [NIMODIPINE] gave a microsomal CLint at 1 h, 1 µM of over 300 µL/min/mg.

Molecule `CCOC(=O)COc1ccc2c(C)c(CCN(CC)CC)c(=O)oc2c1` [CHROMONAR] displayed a microsomal CLint at 1 h, 1 µM of over 300 µL/min/mg.

`COC(=O)[C@H]1[C@H]2C[C@@H]3c4[nH]c5cc(OC)ccc5c4CCN3C[C@H]2C[C@@H](OC(=O)c2cc(OC)c(OC)c(OC)c2)[C@@H]1OC` [RESERPINE] had a microsomal CLint at 1 h, 1 µM of 18.3 µL/min/mg.

Regarding `CCOC(=O)C1(c2ccccc2)CCCN(C)CC1` (centres undefined) [ETHOHEPTAZINE], the microsomal CLint at 1 h, 1 µM was found to be 22.6 µL/min/mg.

Molecule `COC(=O)C1=C(C)NC(C)=C(C(=O)OCCN2CCN(C(c3ccccc3)c3ccccc3)CC2)C1c1cccc([N+](=O)[O-])c1` (centres undefined) [MANIDIPINE 6300] registered a microsomal CLint at 1 h, 1 µM of 93.4 µL/min/mg.

For the molecule `CCOC(=O)c1c(N)sc2c1CCN(Cc1ccccc1)C2` [TINORIDINE], the microsomal CLint at 1 h, 1 µM turned out to be 71.2 µL/min/mg.

Molecule `COC(=O)[C@@H]1CC2=CC(=O)CC[C@]2(C)[C@@]23O[C@@H]2C[C@@]2(C)[C@@H](CC[C@@]24CCC(=O)O4)[C@H]13` [EPLERENONE] yielded a microsomal CLint at 1 h, 1 µM of 7.9 µL/min/mg.

`CC1=C(C(=O)OC(C)C)C(c2cccc([N+](=O)[O-])c2)C(C(=O)OC2CN(C(c3ccccc3)c3ccccc3)C2)=C(N)N1` (centres undefined) [AZELNIDIPINE] gave a microsomal CLint at 1 h, 1 µM of 33.9 µL/min/mg.

Molecule `CCOC(=O)[C@H](CCc1ccccc1)N[C@@H](C)C(=O)N1CC2(C[C@H]1C(=O)O)SCCS2` yielded a microsomal CLint at 1 h, 1 µM of under 8 µL/min/mg.

Consider `CCOC(=O)[C@H](CCc1ccccc1)N[C@@H](C)C(=O)N1[C@H](C(=O)O)C[C@@H]2CCC[C@@H]21`, for which the microsomal CLint at 1 h, 1 µM came to 46.1 µL/min/mg.

As to `CCOC(=O)[C@H](CCc1ccccc1)N[C@@H](C)C(=O)N1Cc2cc(OC)c(OC)cc2C[C@H]1C(=O)O` [MOEXIPRIL], the microsomal CLint at 1 h, 1 µM was under 8 µL/min/mg.

In turn, `CC[C@]12CCCN3CCc4c(n(c5ccccc45)[C@@](O)(C(=O)OC)C1)[C@@H]32` [VINCAMINE] had a microsomal CLint at 1 h, 1 µM of 66 µL/min/mg.

`CCOC(=O)[C@H](CCc1ccccc1)N[C@H]1CS[C@H](c2cccs2)CN(CC(=O)O)C1=O` [TEMOCAPRIL] gave a microsomal CLint at 1 h, 1 µM of 133 µL/min/mg.

On to `COC(=O)C1=C(C)NC(C)=C(C(=O)OC(C)C)C1c1cccc2nonc12` (centres undefined) [ISRADIPINE], for which the microsomal CLint at 1 h, 1 µM is over 300 µL/min/mg.

`CCOC(=O)C1=C(C)NC(C)=C(C(=O)OCC)C1c1ccccc1/C=C/C(=O)OC(C)(C)C` [LACIDIPINE] returned a microsomal CLint at 1 h, 1 µM of 99.2 µL/min/mg.

In turn, `COC(=O)C1=C(C#N)NC(C)=C(C(=O)OC(C)C)C1c1cccc([N+](=O)[O-])c1` (centres undefined) [NILVADIPINE] had a microsomal CLint at 1 h, 1 µM of 205 µL/min/mg.

Take `COC(=O)C(c1ccccc1)C1CCCCN1` (centres undefined) [METHYLPHENIDATE]: the microsomal CLint at 1 h, 1 µM is 11.1 µL/min/mg.

Consider `COC(=O)[C@@H]1[C@H]2C[C@H]3c4[nH]c5ccccc5c4CCN3C[C@@H]2CC[C@@H]1O` [YOHIMBINE], for which the microsomal CLint at 1 h, 1 µM was found to be 34.4 µL/min/mg.

Consider `COC(=O)C1=C(C)NC(C)=C(C(=O)OCC(C)C)C1c1ccccc1[N+](=O)[O-]` (centres undefined) [NISOLDIPINE], for which the microsomal CLint at 1 h, 1 µM is over 300 µL/min/mg.

Staying with this series, now noted: microsomes.
In turn, `COC(=O)[C@H](c1ccccc1Cl)N1CCc2sccc2C1` [CLOPIDOGREL] registered an intrinsic metabolic clearance (microsomal CLint) at 1 h, 1 µM of over 300 µL/min/mg.
